Experimental data from PMC11470999, “Penfluridol inhibits melanoma growth and metastasis through enhancing von Hippel‒Lindau tumor suppressor‐mediated cancerous inhibitor of protein phosphatase 2A (CIP2A) degradation” (MedComm, 2024).

How the values were obtained:
CIP2A = target: T1, CIP2A (Homo sapiens, UniProt Q8TCG1); experiment: DARTS (proteinase K, immunoblot) and cellular thermal shift assay; assay type: cell-based; settings: A375 cells treated with PF (DARTS); melanoma cells (CETSA)
T1 construct: endogenous full-length protein in A375 human melanoma cells / lysate; 905 residues

Hu‐CIP2A (1‐560) = target: T2, Hu‐CIP2A (1‐560) (Homo sapiens, UniProt Q8TCG1); experiment: isothermal titration calorimetry, one-site model; assay type: binding; settings: read-out: dissociation constant
T2 construct: recombinant purified N-terminal armadillo repeat domain, residues 1-560 of 905
From the text: isothermal titration calorimetry, one-site model on Hu‐CIP2A (1‐560) | A strong binding affinity between PF and CIP2A protein was observed, with a dissociation constant

Kd (Hu‐CIP2A (1‐560)): 7.42 µM
SMILES: OC1(c2ccc(Cl)c(C(F)(F)F)c2)CCN(CCCC(c2ccc(F)cc2)c2ccc(F)cc2)CC1 [PF, Penfluridol]
DARTS (proteinase K, immunoblot) and cellular thermal shift assay (CIP2A): PF protects CIP2A from proteinase K‐induced protein hydrolysis
